This is an account of results in patent publication KR20140041632A, “제주조릿대 잎 추출물 또는 그로부터 분리된 파라-쿠마르산을 이용한 비만 및 지방간 개선제 조성물” (제주대학교 산학협력단, priority 2014, dated 2014).

Structures are written as SMILES. “Also recorded” adds a separate entry of the source.

Test [1] relates to 3T3-L1 preadipocytes [3T3-L1 전구지방세포]. As to the kind of experiment: Inhibition of differentiation of 3T3-L1 preadipocytes into adipocytes (Oil Red O). The note with it: 3T3-L1, 100uM, treatment Day4 ~ Day8, Oil Red O 540nm; Fig. 11. It counts as cell-based.
Test [2] concerns ACC. The test can be described thus: Western blot of p-ACC in differentiated 3T3-L1 adipocytes. It counts as cell-based. The note with it: Fig. 12. On the technique in general: A western blot detects proteins with antibodies after separation by electrophoresis.
Test [3] deals with AMPK. The test can be described thus: Western blot of p-AMPK in differentiated L6 cells. It counts as cell-based, rat. The note with it: 48 h, Fig. 13.
A further test deals with LKB1. The test can be described thus: Western blot of p-LKB1 in differentiated 3T3-L1 adipocytes. It counts as cell-based. The note with it: Fig. 12.
Test [4] has as its system ACC. As to the kind of experiment: Western blot of p-ACC in HepG2 cells with induced fat accumulation. The note with it: HepG2, oleic acid 600uM, 24 h; Fig. 15. It counts as cell-based.
The test system of test [5] is ACC. The test can be described thus: Western blot of p-ACC in differentiated L6 cells. It counts as cell-based, rat. The note with it: 48 h, Fig. 13.
The test system of test [6] is AMPK. The test can be described thus: Western blot of p-AMPK in differentiated 3T3-L1 adipocytes. It counts as cell-based. The following applies: Fig. 12.
The subject of another test is PPARα. As to the kind of experiment: Western blot of PPARα in differentiated L6 cells. It counts as cell-based, rat. The following applies: 48 h, vs control, Fig. 14.
For test [7], the system named is AMPK. As to the kind of experiment: Western blot of p-AMPK in HepG2 cells with induced fat accumulation. It counts as cell-based. The note with it: HepG2, oleic acid 600uM, 24 h; Fig. 15.
[8] abbreviates: several concentrations, vs control.

Regarding `O=C(O)/C=C/c1ccc(O)cc1` [p-쿠마르산, p-coumaric acid], the “TG content / triglyceride accumulation” value in [1] was “유의적으로 감소; also recorded: 중성지방의 축적을 억제”. For the same compound, the ACC phosphorylation entry with ACC [2] is “증가 and 농도 의존적으로 LKB1의 인산화, AMPK의 인산화 및 ACC의 인산화를 증가시킴”; with ACC [4] it was “농도의존적으로 증가; also recorded: 농도 의존적으로 AMPK 및 ACC의 인산화를 증가시킴”; with ACC [5] (setting [8]), “농도의존적으로 증가; also recorded: 농도 의존적으로 AMPK 및 ACC의 인산화를 증가시킴”. In addition, the “AMPK phosphorylation at highest concentration” value with AMPK [3] (50uM) is recorded as “현저한 증가”. For the same compound, the AMPK phosphorylation result in the test with AMPK [3] (setting [8]) is “농도의존적으로 증가; also recorded: 농도 의존적으로 AMPK 및 ACC의 인산화를 증가시킴”; with AMPK [6], “증가 and 농도 의존적으로 LKB1의 인산화, AMPK의 인산화 및 ACC의 인산화를 증가시킴”; in the test with AMPK [7], “농도의존적으로 증가; also recorded: 농도 의존적으로 AMPK 및 ACC의 인산화를 증가시킴”. Also, the LKB1 phosphorylation entry in the test with LKB1 is “증가 and 농도 의존적으로 LKB1의 인산화, AMPK의 인산화 및 ACC의 인산화를 증가시킴”. Further, in the test on ACC [5] (50uM), the “ACC phosphorylation at highest concentration” value is on record as “현저한 증가”. The PPARα expression entry in the test with PPARα is “증가 and 농도 의존적으로 PPARα 발현을 증가시킴”.
